Assay results taken from patent publication US5888978A, “Method for reducing the severity of gastro-intestinal damage” (Trega Biosciences, Inc., priority 1995, dated 1999).

System: indomethacin treated rats
Assay: indomethacin-induced GI damage in rats (diarrhea and survival)
Format: in vivo, Harlan Sprague-Dawley rats
Conditions: Ind-CRA-1 group
Procedure: As disclosed herein, administration of a CRA reduced the severity of GI damage in indomethacin treated rats. The effect of indomethacin administration on GI damage to rats is a well recognized model for studying the efficacy of agents that can affect GI damage (see, for example, Perkins et al., J. Pharmacol. Expt. Ther. 269:151-156 (1994)). In the model system used in the experiments described in Example I, the appearance of diarrhea and animal survival were determined following administration of indomethacin, alone, or with concurrent treatment using a cytokine regulatory agent.
The CRA, Ac-Nle-Gln-His-(D)Phe-Arg-(D)Trp-Gly-NH2 (CRA-1), was prepared as described (U.S. Pat. No. 5,420,109, supra, 1995). Adult male Harlan Sprague-Dawley rats (325-425 g) were divided into four groups (6 rats/group). Rats were weighed every morning and food was removed prior to receiving any treatment. Two groups of rats were pretreated by intraperitoneal (ip) injection of sterile saline, alone ("control"), and the remaining two groups were pretreated by ip injection of CRA-1 (100 μg/kg in saline). Pretreatment injections were administered between 8:00-9:00 am.
One hr following the pretreatment, one group of control rats was injected ip, on the side opposite the initial injection, with saline (Sal-control) and the other control group was injected with indomethacin (Ind-control; 10 mg/kg in saline, adjusted to pH 7.5-8.5 with NaOH). Similarly, the two groups of CRA-1 treated rats received either saline (Sal-CRA-1) or indomethacin (Ind-CRA-1). At 8 hr and 16 hr after the pretreatment, control rats and CRA-1 rats were administered saline or CRA-1, respectively. Food was returned to the rats after the 8 hr injection. This protocol was repeated for 7 days.

Compound: CCCC[C@H](NC(C)=O)C(=O)N[C@@H](CCC(N)=O)C(=O)N[C@@H](Cc1c[nH]cn1)C(=O)N[C@H](Cc1ccccc1)C(=O)N[C@@H](CCCNC(=N)N)C(=O)N[C@H](Cc1c[nH]c2ccccc12)C(=O)NCC(N)=O [CRA-1, Ac-Nle-Gln-His-(D)Phe-Arg-(D)Trp-Gly-NH2]
- surviving rats with diarrhea by day 7 (2 of the surviving 5 rats, CRA-1 100 μg/kg ip plus indomethacin 10 mg/kg ip, all 3 surviving Ind-saline rats had diarrhea): 40%
- surviving rats with diarrhea by day 8 (3/5, CRA-1 100 μg/kg ip plus indomethacin 10 mg/kg ip): 60%
- survival by day 8 (5/6, CRA-1 100 μg/kg ip plus indomethacin 10 mg/kg ip, Ind-saline control 66.7% lethality): 83.3%
- rats with diarrhea at day 4 (6 rats, CRA-1 100 μg/kg ip (pretreatment, 8 hr and 16 hr) plus indomethacin 10 mg/kg ip daily, Ind-saline control 5 of 6 (83.3%)): none
- rats that had died by day 7 (CRA-1 100 μg/kg ip plus indomethacin 10 mg/kg ip daily for 7 days, Ind-saline control 3 of 6 died): 1 of the 6
